Source: the NIST ThermoML archive (doi:10.1016/j.tca.2012.12.008)

Assay: xn = mol fraction of the nth substance listed
Conditions: 101 kPa, Liquid; for viscosity: Capillary tube (Ostwald / Ubbelohde) method; for mass density: Vibrating tube method

CCCCC(C)O (stereo not drawn) [2-hexanol] + CCC(C)=O
Conditions	mass density, 298.15 K [kg/m3]	mass density, 303.15 K [kg/m3]	mass density, 308.15 K [kg/m3]	mass density, 313.15 K [kg/m3]	viscosity, 298.15 K [mPa·s]	viscosity, 303.15 K [mPa·s]	viscosity, 308.15 K [mPa·s]	viscosity, 313.15 K [mPa·s]
x2 = 0	810.14	806.13	802.06	797.96	4.101	3.411	2.819	2.219
x2 = 0.0874	808.49	804.57	800.48	796.34	3.085	2.587	2.145	1.714
x2 = 0.1661	807.21	803.17	799.05	794.87	2.413	2.035	1.684	1.358
x2 = 0.2482	805.92	801.8	797.59	793.4	1.909	1.63	1.361	1.086
x2 = 0.355	804.36	800.03	795.83	791.6	1.454	1.232	1.027	0.826
x2 = 0.4463	803.2	798.8	794.5	790.25	1.178	0.998	0.831	0.692
x2 = 0.5671	801.84	797.36	792.94	788.71	0.889	0.775	0.678	0.592
x2 = 0.6534	801.04	796.47	792.02	787.75	0.718	0.647	0.587	0.536
x2 = 0.7422	800.4	795.74	791.22	786.94	0.603	0.564	0.525	0.487
x2 = 0.8547	799.91	795.09	790.45	786.14	0.505	0.479	0.449	0.419
x2 = 0.942	799.62	794.76	790.06	785.68	0.429	0.41	0.388	0.366
